Laboratory results published in patent US10624917B2, “Compositions and methods useful for treating or preventing liver diseases or disorders, and promoting weight loss” (YALE UNIVERSITY, priority 2014, dated 2020).
Where no end group is shown, it is not given here.

What was measured:
[1] = test system: IL-1β production in murine peritoneal macrophages (PECs); test: IL-1β secretion (ELISA) by primed, ATP-pulsed peritoneal macrophages (PECs); assay type: cell-based, mouse; settings: for IL-1β production in response to NECA and CGS21680: with PKA inhibition
Procedure: (§1) FIGS. 1A-1J illustrate the finding that adenosine stimulates IL-1β production in NLRP3 inflammasome-dependent manner. Murine peritoneal macrophages (PECs) were obtained from wild type (WT) mice (FIGS. 1A-1D, 1F-1I), Il1r−/− (FIG. 1E) or Nlrp3−/−, ASC−/−, P2xr7−/−, or Caspase-1−/− mice (FIG. 1J) and were primed with LPS for 16 hours. FIG. 1A: This was followed by treatment for 1 hour with adenosine (Ad, 100 μM), adenosine deaminase inhibitor (EHNA, 10 μM), adenosine deaminase (ADA, 10 U ml^−1), ATP diphosphohydrolase (Apyrase, 10 U ml^−1), or erythro-9-(2-hydroxy-3-nonyl) adenine (EHNA, 10 μM) (FIGS. 1B, 1F-1J)). Pan adenosine agonist (NECA, 1 μM, 10 μM) (FIGS. 1C, 1E), or (FIGS. 1D, 1I) by NECA for 1 and 6 hours, and were then pulsed with ATP for 20 min. Enzyme-linked immunosobent assay (ELISA) of IL-1β, TNF-α, IL-10 and IFN-γ secretion were measured in cell supernatants after pulsing with ATP for 5 hours (FIGS. 1A, 1C-1E, 1J) or indicated time-course (FIGS. 1B, 1G-1I). LDH assay was performed after pulsing with ATP as indicated time-course (FIG. 1F). Data are expressed as the mean±SD from at least three independent experiments. *p<0.05 determined by Student's t-test.
C57BL/6 mice were purchased from the National Cancer Institute. ASC−/−, Caspase-1−/−, Nlrp3−/− and P2xr7−/− mice have been described (Rock et al., 2010, Annu Rev Immunol. 28:321-42). A2ora2a flox/flox mice and LysMcre mice were purchased from Jackson Laboratories. HIF-1a flox/flox mice were kindly provided by Dr. Ruslan M Medzhitov (Yale University). 7- to 12-week-old males with a variety of genetic manipulations were used in most experiments. The number of mice in each experimental group was chosen based on previous experience with these experimental models. Mouse peritoneal macrophages (PECs) were isolated by peritoneal lavage 3 days after intraperitoneal injection of 4% thioglycollate solution (B2551, Fluka,). Cells were plated at the density of 3×10^6 cells in 12-well dishes and non-adherent cells were removed after 3 h. Cells primed overnight with 100 ng/ml LPS or 10 ng/ml Pam3CSK4 were treated with various chemicals and followed stimulation. Cells were cultured in DMEM medium complemented with 10% FBS, penicillin/streptomycin and L-glutamine. Mouse bone marrow derived macrophages were isolated from bone marrow cells, and were differentiated for 7 days in complete RPMI-1640 medium supplemented with 2 mM L-glutamine, 100 U/ml penicillin, 100 μg/ml streptomycin, 50 μM 2-mercaptoethanol (all from Invitrogen), 10% heat-inactivated FBS and 20 ng/ml M-CSF (PeproTech). Kupffer cells (KC) were isolated by the density gradient separation of Optiprep (Sigma), and then plates were gently washed and media was replenished after seeding cells for 2 hours to raise KC purity.
Primed PECs were both pulsed for 20 min with 5 mM ATP or 10 μM nigericin, and left untreated until culture supernatants were collected. Secretion of IL-1β was determined by enzyme-linked immunoabsorbent assay (ELISA; R&D Systems).

[2] = test system: Il1b and other genes in PECs; test: Quantitative real-time RT-PCR gene expression in PECs; assay type: cell-based, mouse; settings: LPS primed PECs, NECA
Procedure: (§2) FIGS. 3A-3I illustrate the finding that adenosine supersedes LPS induced tolerance and increases IL-1β production by upregulating transcription of pro-IL-1β via cAMP-PKA pathway. PECs were used in all of the following experiments. FIG. 3A: Primed (pri) with LPS (100 ng/ml) for 16 hours followed by stimulation (stim) with LPS (100 ng/ml), or NECA (10 μM) or CGS21680 (10 μM) in the presence or absence of LPS (100 ng/ml) for 6 hours. FIG. 3B: Treated with forskolin for 6 hours as indicated doses with and without LPS priming FIG. 3C: Treated with or without NECA (10 μM), CGS21680 (10 μM) or db-cAMP (200 μM) for 6 hours. FIG. 3D: LPS primed and treated with NECA or CGS21680 in the presence and absence of SQ22536, H89 and PKi. FIG. 3E: Primed with LPS for 16 hours and treated with ATP for 20 min, followed by CGS 21680 in the presence or absence of the adenylyl cyclase and PKA inhibitors SQ22536 and H-89. FIG. 3F: Primed with LPS and treated with or without NECA (10 μM) or db-cAMP (200 μM) for 6 hours. FIG. 3G: Treated with or without CGS21680 (10 μM) for 3 hours, and transcription was stopped by adding […] actinomycin D, and RNA samples collected at indicated times-points. FIG. 3H: LPS primed PECs obtained from wild type or A2AR-cKO mice were stimulated with NECA (10 μM) for 6 hours. The cells were harvested and RNA isolated after each treatment and the gene expression of Il1b and other genes as indicated quantified by real-time PCR using specific primers. FIG. 3I: Primed with LPS for 16 hours and treated with ATP for 20 min, followed by CGS 21680 in the presence or absence of SQ22536 or H-89 Immunoblot analysis of the proIL-1β caspase-1 in cell lysate was performed by specific […] and anti caspase-1 p10 antibodies (FIGS. 3C, 3E-3F, 3I). Data are expressed as the mean±SD from three independent experiments Immunoblots shown are representative results from at least three independent experiments. *p<0.05 determined by Student's t-test.
FIGS. 9A-9H illustrate changes in expression of cytokines and tissue repair genes in peritoneal macrophages in response to adenosine agonists. LPS naive or LPS primed PECs were stimulated with LPS (100 ng ml^−1), CGS21680 (10 μM) or NECA (10 μM) at different time points as indicated. The cells were harvested and RNA isolated after each treatment, and the gene expression of ProIL-1β (Il1b) (FIG. 9A), IL-6 (Il6) (FIG. 9B), IL-4 (Il4) (FIG. 9C), TNF-α (tnfa) (FIG. 9D), TIMP-1 (Timp1) (FIG. 9E), VEGF (vegf) (FIG. 9F), PGK-1 (Pgk1) (FIG. 9G), GLUT-1 (Slc2a1) (FIG. 9H) quantified by real-time PCR using each specific gene primer set as listed. Data are expressed as the mean±SD from three independent experiments. *p<0.05 determined by Student's t-test.
Total RNA was extracted using TRIZOL reagent (Invitrogen), and cDNA was generated with an oligo (dT) primer and the Superscript II system (Invitrogen, USA) followed by analysis using LightCycler 480 system (Roche). q-PCR was performed for Il1b using commercial primer-probe sets (Applied Biosystems Inc.) with DNA master Mix (Roche). Expression of GAPDH was used to standardize the samples, and the results were expressed as a ratio relative to control; q-PCR was performed for tnfa, 116, Txnip, Nlrp3, Hif1a, Timp1, using LightCycler 480 SYBR Green I master mix (Roche). Results were normalized based on the expression of β-actin.

[3] = test system: active caspase-1 / pro-IL-1β in PECs; test: Western blot of caspase-1 and pro-IL-1β in PECs; assay type: cell-based, mouse; settings: for CGS21680 induced increase in LPS/ATP induced active caspase-1: LPS/ATP + CGS21680 with inhibitor; for active (cleaved) caspase-1: in response to LPS/ATP
Procedure: FIGS. 2A-2H illustrate the finding that adenosine mediates increase in IL-1β via the A2A receptor and amplifies signal 1 and signal 2 pathways. FIG. 2A: LPS primed PECs were treated with NECA (10 μM) in the presence or absence of […] different adenosine receptor antagonists for A1 (DPCPX, 10 nM), A2A (ZM 241385, 10 μM), A2B (MRS1706, 10 nM), A3 (MRS1523, 5 μM), or their combinations for 1 hour, and pulsed with ATP for 20 min. FIGS. 2A-2B: A2A receptor specific agonist (CGS21680) and antagonist ZM 241385 increase and block IL-1β production respectively. […] FIG. 2D: PEC's from A2A receptor deficient cells have low IL-1β production, which is not increased by NECA and CGS 21680. FIG. 2E: CGS21680 increases induction of Il1b mRNA expression, and this was decreased in A2A receptor deficient cells. FIG. 2F: Loss of the A2A receptor in macrophages results in much lower levels of Il1b protein A expression in response to LPS. FIG. 2G: CGS21680 and […] increases and decreases production of cleaved caspase-1, respectively. FIG. 2H: The production of cleaved caspase-1 is decreased in A2A receptor deficient macrophages. Data are expressed as the mean±SD from at least three independent experiments Immunoblots shown are representative results from at least three independent experiments. p<0.05 determined by Student's t-test.
as §2
Liver tissue lysates or PECs were lysed in RIPA buffer (10 mM phosphate buffer pH 7.4, 150 mM NaCl, 1% NP-40, 0.5% sodium deoxycholate, 0.1% SDS) supplemented with complete protease inhibitor cocktail (Roche) and 2 mM dithiothreitol. Lysates were resolved in 4-12% Tris-glycine gradient gels (Invitrogen) and transferred to nitrocellulose (Invitrogen) by electro-blotting. The following antibodies were used: rabbit anti-caspase-1 p10 (SC-514, Santa Cruz), goat anti-mouse IL-1β (BAF401, R&D Systems), Rabbit antimouse HIF-1α (NB100-449, Novus Biologicals, Littleton, Colo.).

[4] = test system: PECs; test: LDH release (cell death) assay in PECs; assay type: cell-based; settings: LPS + ATP treated PECs
Procedure: as §1, with “Pan adenosine agonist (NECA, 1 μM, 10 μM) (FIGS. 1C, 1E), or (FIGS. 1D, 1I) by NECA for 1 and 6 hours, and were then pulsed with ATP for 20 min.” left out, “LDH assay was performed after pulsing with ATP as indicated time-course (FIG. 1F).” left out
FIGS. 2A-2H illustrate the finding that adenosine mediates increase in IL-1β via the A2A receptor and amplifies signal 1 and signal 2 pathways. […] Data are expressed as the mean±SD from at least three independent experiments Immunoblots shown are representative results from at least three independent experiments. p<0.05 determined by Student's t-test.

[5] = test system: TNF-α, IL-10 and IFN-γ secretion; test: ELISA of other cytokines in PEC supernatants; assay type: cell-based, mouse; settings: LPS + ATP, adenosine deaminase inhibition
Procedure: as §1

[6] = test system: IL-1β production in murine peritoneal macrophages (PECs); test: IL-1β secretion (ELISA) by primed, ATP-pulsed peritoneal macrophages (PECs); assay type: cell-based, mouse; settings: CpG-B and ATP
[7] = LPS-primed PECs pulsed with ATP
[8] = in the absence of either LPS or ATP

Molecule: COC(=O)c1ccc(O)c(NC(=O)COc2ccc(C34CC5CC(CC(C5)C3)C4)cc2)c1 [CAY10585]
- adenosine agonist induced IL-1β production ([1]; LPS primed PECs, ATP pulse): significantly decrease
- adenosine agonist induced Il1b expression [2]: significantly decrease

Molecule: Nc1ncnc2c1ncn2C1CCCO1 (stereo not drawn) [SQ22536]
- increase in IL-1β induced by CGS21680 and EHNA ([1]; with adenylate cyclase inhibitor): block
- CGS21680 induced increase in LPS/ATP induced active caspase-1 [3]: reduced

Molecule: PKI 14-22 amide (SGRTGRRNA-NH2; UniProt P61925 14-22, looked up, fragment)
- IL-1β production in response to NECA and CGS21680 [1]: significantly reduced

Molecule: Nc1ncnc2c1ncn2[C@@H]1O[C@H](CO)[C@@H](O)[C@H]1O [adenosine]
- IL-1β production [1, 7]: significantly increased
- IL-1β production [1, 8]: did not result in any detectable IL-1β

Molecule: CCCC(=O)Nc1ncnc2c1ncn2[C@@H]1O[C@@H]2COP(=O)([O-])O[C@H]2[C@H]1OC(=O)CCC.[Na+] [db-cAMP, N6,2′-O-Dibutyryladenosine 3′,5′-cyclic monophosphate sodium salt]
- up-regulation of Pro-IL-1β ([3]; 6 hours, FIG. 3C): induced up-regulation
- pro-IL1β protein levels ([3]; cells from A2AR-cKO mice): increase

Molecule: CCCCCC[C@@H]([C@@H](C)O)n1cnc2c(N)ncnc21 (racemic) [EHNA, erythro-9-(2-hydroxy-3-nonyl) adenine]
- IL-1β production, time course ([1]; LPS + ATP, time course): sustained increase
- IL-1β production [1, 7]: significant increase
- IL-1β production [1, 8]: did not result in any detectable IL-1β
- IL-1β production by LPS and ATP ([1]; macrophages lacking caspase-1, NLRP3, ASC or P2x7 receptor): did not result in significant production of IL-1β
- LDH (lactate dehydrogenase) release, cell death [4]: did not show correlation with the secretion of IL-1β
- production of IFN-γ [5]: increase
- production of IL-10 [5]: no effect
- production of TNF-α [5]: reduction
- IL-1β production [6]: increase

Molecule: O=S(=O)(NCCNC/C=C/c1ccc(Br)cc1)c1cccc2cnccc12 [H-89]
- IL-1β production in response to NECA and CGS21680 [1]: significantly reduced
- CGS21680 induced increase in LPS/ATP induced active caspase-1 [3]: reduced

Molecule: Nc1nc(NCCc2ccc(O)cc2)nc2nc(-c3ccco3)nn12 [ZM241385]
- NECA-increased IL-1β production ([1]; LPS + ATP + NECA with receptor antagonist): inhibited
- IL-1β production stimulated by CGS21680, NECA and EHNA ([1]; LPS + ATP with antagonist): inhibited
- IL-1β production [1, 7]: block
- CGS21680 induced increase in LPS/ATP induced active caspase-1 [3]: inhibited
- active (cleaved) caspase-1 [3]: decreased
- active (cleaved) caspase-1 ([3]; listed as ZM241395): decreases

B1: adenosine deaminase: Adenosine deaminase obtained from Worthington Biochemical corporation (protein, UniProt P56658 2-363, looked up)
Adenosine deaminase: AQTPAFNKPKVELHVHLDGAIKPETILYYGRKRGIALPADTPEELQNIIGMDKPLSLPEFLAKFDYYMPAIAGCREAVKRIAYEFVEMKAKDGVVYVEVRYSPHLLANSKVEPIPWNQAEGDLTPDEVVSLVNQGLQEGERDFGVKVRSILCCMRHQPSWSSEVVELCKKYREQTVVAIDLAGDETIEGSSLFPGHVKAYAEAVKSGVHRTVHAGEVGSANVVKEAVDTLKTERLGHGYHTLEDATLYNRLRQENMHFEVCPWSSYLTGAWKPDTEHPVVRFKNDQVNYSLNTDDPLIFKSTLDTDYQMTKNEMGFTEEEFKRLNINAAKSSFLPEDEKKELLDLLYKAYGMPSPASAEQCL
- IL-1β production [1, 7]: significant reduction
